Each block holds one compound with its values, some of them ahead of it.
How the values were obtained:
[1] = system: schizophrenia patients; conditions: cited from earlier work
[2] = system: locomotor sensitization to amphetamine; test: locomotor sensitization to amphetamine; assay type: in vivo
[3] = system: rat locomotion; conditions: cited from earlier work; for effect on locomotion at higher doses: significant D2 receptor occupancy or activation; for effect on locomotion at low doses: devoid of significant D2 receptor occupancy; for effect on rat locomotion: D3 antagonists
[4] = system: D3 knockout and wild type mice; conditions: habituated animals; cited from earlier work
[5] = system: neurons in substantia nigra (SN), ventral tegmentum (VTA), and nucleus accumbens (NA); conditions: cited from earlier work
[6] = biological target: D3 dopamine receptor (D3/D2) (Homo sapiens, UniProt P35462); conditions: cited from earlier work
[7] = system: stereotyped behaviors induced by apomorphine and dizocilipine; conditions: preclinical models of antipsychotic drug efficacy; cited from earlier work
[8] = biological target: D2 receptors (Homo sapiens, UniProt P14416); test: biochemical; conditions: read-out: occupancy for D2
[9] = system: behavioral sensitization; conditions: later challenge; cited from earlier work
[10] = system: D2 receptor; conditions: dose that inhibits sensitization; cited from earlier work

D3 dopamine receptor (D3/D2), sequence (P35462 whole entry): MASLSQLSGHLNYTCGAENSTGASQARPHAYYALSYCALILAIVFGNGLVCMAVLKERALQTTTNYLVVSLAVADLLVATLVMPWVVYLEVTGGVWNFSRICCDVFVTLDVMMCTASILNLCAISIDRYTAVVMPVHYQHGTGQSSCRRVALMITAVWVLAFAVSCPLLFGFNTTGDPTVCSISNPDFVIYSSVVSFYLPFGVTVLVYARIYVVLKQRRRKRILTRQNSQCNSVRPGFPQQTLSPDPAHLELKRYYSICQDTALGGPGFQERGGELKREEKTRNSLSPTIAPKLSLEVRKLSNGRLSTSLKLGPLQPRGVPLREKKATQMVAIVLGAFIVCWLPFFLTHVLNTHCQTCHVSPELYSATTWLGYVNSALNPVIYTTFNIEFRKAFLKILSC
D2 receptors, sequence (P14416 whole entry): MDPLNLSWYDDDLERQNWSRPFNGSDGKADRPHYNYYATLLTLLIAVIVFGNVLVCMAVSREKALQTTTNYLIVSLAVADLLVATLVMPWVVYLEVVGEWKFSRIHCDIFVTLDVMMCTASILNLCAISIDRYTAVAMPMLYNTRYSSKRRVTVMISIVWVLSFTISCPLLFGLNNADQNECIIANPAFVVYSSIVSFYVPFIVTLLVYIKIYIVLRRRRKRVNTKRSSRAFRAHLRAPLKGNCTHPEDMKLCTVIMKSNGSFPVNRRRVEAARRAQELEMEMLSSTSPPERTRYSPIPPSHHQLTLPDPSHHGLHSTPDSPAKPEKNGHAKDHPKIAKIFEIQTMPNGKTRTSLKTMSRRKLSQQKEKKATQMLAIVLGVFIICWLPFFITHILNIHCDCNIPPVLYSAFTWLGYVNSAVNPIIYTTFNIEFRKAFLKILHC

Compound: CCCN1CCCC(c2cccc(O)c2)C1 (single isomer, unassigned; (-)) [(−)-3PPP, (−)-3-(3-hydroxyphenyl)-N-n-propylpiperidine]
effect on psychotic symptoms [1]: improved psychotic symptoms in schizophrenia patients for up to one week

Compound: CCCN(CCC)C1CCc2ccc(O)cc2C1 (stereo not shown) [7-OH-DPAT, 7-hydroxy-N,N-di-n-propyl-2-aminotetralin]
behavioral response to the D3 agonist after a sensitizing regimen of amphetamine ([2]; following a sensitizing regimen of amphetamine): decreased behavioral response | effect on locomotion at higher doses [3]: stimulation of locomotion | effect on locomotion at low doses [3]: inhibition of spontaneous locomotion | effect on locomotion after micro-injection ([3]; micro-injection into rat nucleus accumbens, also systemic administration in mice): inhibition of locomotion | difference in hypolocomotor behavioral response between D3 knockout and wild type mice [4]: Neither laboratory found a significant difference | effect on neuronal firing rate [5]: inhibits neuronal firing rate

Compound: CCCN[C@@H]1CCc2c(OC)cccc2[C@@H]1C [(+)-AJ 76]
effect on rat locomotion [3]: stimulate rat locomotion

Compound: CCCN(CCC)[C@@H]1CCc2c(OC)cccc2[C@@H]1C [(+)-UH 232]
effect on rat locomotion [3]: stimulate rat locomotion | effect on psychotic symptoms [1]: further worsened positive psychotic symptoms

Compound: O=C(NCCCCN1CCN(c2cccc(Cl)c2Cl)CC1)c1ccc2c(c1)Cc1ccccc1-2 [NGB 2904]
preference (selectivity) for D3/D2 [6]: 155 fold

Compound: CCCN1CCO[C@@H]2c3cc(O)ccc3OC[C@H]21 [PD 128907]
effect on stereotyped behaviors induced by apomorphine and dizocilipine [7]: effectively inhibits | effect on locomotion at higher doses [3]: stimulation of locomotion | effect on locomotion at low doses [3]: inhibition of spontaneous locomotion | difference in hypolocomotor behavioral response between D3 knockout and wild type mice [4]: Neither laboratory found a significant difference

Compound: N#Cc1ccc2c(c1)[C@H]1CN(CCCCNC(=O)c3ccc(-c4ccccc4)cc3)C[C@@H]1CO2 [S33084]
preference (selectivity) for D3/D2 [6]: 100 fold

Compound: CCCN(CCC)C1Cc2cc(OC)c(OC)cc2C1 [U99194A]
effect on rat locomotion [3]: stimulate rat locomotion

receptor occupancy at 0.75 µM [8]: 27%
Compound: NCCc1ccc(O)c(O)c1 [dopamine]

Compound: O=C(CCCN1CCC(O)(c2ccc(Cl)cc2)CC1)c1ccc(F)cc1 [haloperidol]
sensitization after repetitive treatment [9]: results in sensitization to later challenge by cocaine, amphetamine, or the dopamine agonist apomorphine

Compound: CCCCN1CCCC1CNC(=O)c1cc(C#N)c2ccccc2c1OC (stereo not shown) [nafadotride]
D2 receptor occupancy at the dose used [10]: devoid of appreciable D2 receptor occupancy | effect on locomotor sensitization to amphetamine ([2]; dose devoid of appreciable D2 receptor occupancy): inhibition of locomotor sensitization to amphetamine | effect on rat locomotion [3]: stimulate rat locomotion | preference (selectivity) for D3/D2 [6]: 10 fold

Compound: CCN1CCCC1CNC(=O)c1cc(S(N)(=O)=O)ccc1OC (stereo not shown) [sulpiride]
sensitization after repetitive treatment [9]: results in sensitization to cocaine | D2/D3 affinity ratio [6]: 2

— patent US20040176467A1, “Method of preventing or reducing the occurrence of symptoms of psychosis” (priority 2004, published 2004)
